# Key:
# Assay type in all cases: cell-based, human
# HCT116 cells = experiment: VX-970 dose response after siRNA silencing of BAF components; conditions: HCT116, 5 days exposure; p<0.0001 ANOVA
# Protocol: (§1) FIG. 6. BAF complex deficiency causes sensitivity to ATR inhibition. A. Schematic of BAF complex composition in human cells. B. VX-970 dose response curves from HCT116 cells transfected with siRNA targeting ARID1B or SMARCA4. 48 hours after transfection cells were exposed to VX-970 for 5 days. Error bars represent SD from triplicate experiments. p<0.0001, ANOVA for siARID1B and siSMARCA4 vs. siCON. C. Western blots illustrating ARID1B and SMARCA4 silencing in experiment (B). D. VX-970 dose response curves from four OCCC cell lines, 3 SMARCA4 wildtype (blue; RMG1, KK and ES2) and 1 SMARCA4 mutant (red; TOV112D). E. Bar chart illustrating surviving fraction after five days VX-970 exposure in HCC1143 and He1a cells transfected with siRNA targeting either SMARCA4 or ARID1A *p<0.05 by Student's t-test compared to siCon. F. Western blot illustrating level of chromatin bound TOP2A in HCT116 cells transfected siRNA targeting ARID1A, ARID1B or SMARCA4. Cells were analysed 48 hours after transfection. G. A model for the proposed mechanism driving the sensitivity of ARID1A-deficient cells to ATRi. […]
# (§2) Short-term survival assays were performed in 384-well plates. […] Drug was added 24 h after seeding and cells were continuously exposed to the drug for five days, after which cell viability was estimated using CellTitre-Glo luminescence (Promega). […] Colonies were counted manually. […]
# HCC1143 and HeLa cells = experiment: Surviving fraction after five days VX-970 with SMARCA4 or ARID1A siRNA; conditions: five days exposure
# Protocol: as §1, with “ATRi. Loss of function genomic alterations to ARID1A (or ARID1B/SMARCA4) lead to dysfunction of the BAF complex. This in turn causes decreased binding of TOP2A to chromatin, reducing the efficiency of chromosomal decatenation.” for “ATRi.”
# [1] = system: HCT116 ARID1A+/+ and ARID1A−/− cells; experiment: Mitotic spreads, chromosomal aberrations; conditions: VX-970 1 uM; p=0.0007 Student's t-test
# Protocol: FIG. 5. ATRi effect on cell cycle progression, chromosomal instability, DNA damage and apoptosis. A. Barchart illustrating G2/M fraction in HCT116 ARID1A^+/+ and ARID1A^−/− cells synchronized in G1/early S phase by double thymidine block and released into fresh media containing DMSO or VX-970 (500 nM). The percentage of cells in G2/M was measured by FACS following PI staining. […] Cells were stained with DAPI. A minimum of 50 anaphases were scored in 3 biological replicate experiments. *p=0.023, Student's t-test. C. Bar chart illustrating frequency of anaphase bridges in TOV21G cells exposed to VX-970 (0.5 uM) or DMSO for 8 hours prior to fixation. Experiment performed as for (B). p=0.006 Student's t-test. D. Mitotic spread images from HCT116 ARID1A^+/+ and ARID1A^−/− cells following exposure to either DMSO or VX-970 (1 uM). Scale bar represents 20 um. E. Bar chart illustrating extent of chromosomal abnormalities in HCT116 ARID1A^+/+ and ARID1A^−/− cells exposed to VX-970 (1 uM). *p<0.05, Student's t-test. F. Western blot illustrating γH2AX in HCT116 ARID1A^+/+ and ARID1A^−/− cells exposed to VX-970 (0.5 uM) for the indicated time prior to cell lyses. G. Bar chart illustrating apoptotic fraction in cells exposed to increasing concentrations of VX-970 for 24 hours. Experiment as per FIG. 3I. H. Western blot illustrating PARP cleavage in HCT116 ARID1A^+/+ and ARID1A^−/− cells exposed to VX-970. […]
# [2] = system: ARID1A mutant vs ARID1A wild type tumor cell lines; experiment: Five-day VX-970 sensitivity (AUC) in a diverse tumour cell line panel; conditions: five days exposure, Student's t-test
# Protocol: FIG. 2. In vitro ARID1A/ATR synthetic lethality. A. Chemical structure of VX-970. B. Western blot of ARID1A in human ARID1A isogenic HCT116 cells. C. Image of colonies in 6 well-plate clonogenic assay. HCT116 ARID1A isogenic (^+/+ and ^−/−) cell lines were exposed to increasing concentrations of the VE-821 (0, 0.1, 1 uM) and VX-970 (0, 0.01, 0.05 uM) for 14 days. D and E. Dose response clonogenic survival curve of HCT116 ARID1A isogenic (^+/+ and ^−/−) cell lines exposed to increasing concentrations of the VE-821 and VX-970 for 14 days. Error bars represent SD from triplicate experiments, ANOVA p-value of <0.0001. F. Area under curve (AUC) box whisker comparison plot for human tumor cell lines exposed to VX-970 for five days. ARID1A wild type tumor cell lines (n=15) were compared to ARID1A mutant cell lines (n=9). Student's t-test p=0.00594. G. Dose response clonogenic survival curve of mouse Arid1a isogenic ES cell lines. Experiment was performed as per (C). Error bars represent SD from triplicate experiments, ANOVA p value of <0.0001. H. Western blot of Arid1a protein expression in mouse ES Arid1a isogenic cells. […]
# as §2
compound,measurement,setting,value
"CNCc1ccc(-c2cc(-c3nc(-c4ccc(S(=O)(=O)C(C)C)cc4)cnc3N)on2)cc1 [VX-970, 5-[4-(Isopropylsulfonyl)phenyl]-3-(3-{4-[(methylamino)methyl]phenyl}-1,2-oxazol-5-yl)-2-pyrazinamine]","VX-970 sensitivity after silencing of SMARCA4, ARID1B or SMARCB1",HCT116 cells,enhanced sensitivity
same,VX-970 sensitivity caused by SMARCA4 silencing vs ARID1A siRNA,HCC1143 and HeLa cells,comparable to that caused by ARID1A siRNA
same,frequency of chromosomal aberrations in ARID1A−/− cells,[1],significant enhancement in the frequency of chromosomal aberrations
same,sensitivity of ARID1A mutant (n=9) vs non-mutant (n=15) tumour cell lines,[2],significantly more sensitive to VX-970
